The target in assay [1] is T1, human recombinant wild-type ALK kinase domain (amino acids 1093-1411) (Homo sapiens, UniProt Q9UM73).
T1 construct: ALK kinase domain (amino acids 1093-1411); made in house
The assay is described as follows: ALK enzyme assay 2 (microfluidic mobility shift assay).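 Also: kinase reaction run 1 h at room temperature, conversion quantified by electrophoretic separation of fluorescent peptide substrate from phosphorylated product, about 15-20% turnover without inhibitor.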 In kind it is biochemical.
Description: The reactions were incubated for 1 h at room temperature, stopped by the addition of 0.1 M EDTA, pH 8, and the extent of reactions (˜15-20% conversion with no inhibitor) was determined after electrophoretic separation of the fluorescently labeled peptide substrate and phosphorylated product on an LabChip EZ Reader II (Caliper Life Sciences, Hopkinton, Mass.).

The target in assay [2] is EML4-ALK wt v1 in NIH-3T3 cells (Homo sapiens, UniProt Q9UM73).

Where only a bound is given, the exact number is not on record here.

Data on 28 molecules can be found in patent publication US8916593B2, “Alkoxy-substituted 2-aminopyridines as ALK inhibitors” (Pfizer Inc., priority 2010, dated 2014).

Sequence of EML4-ALK wt v1 in NIH-3T3 cells (Q9UM73 with tags, fused parts or gaps): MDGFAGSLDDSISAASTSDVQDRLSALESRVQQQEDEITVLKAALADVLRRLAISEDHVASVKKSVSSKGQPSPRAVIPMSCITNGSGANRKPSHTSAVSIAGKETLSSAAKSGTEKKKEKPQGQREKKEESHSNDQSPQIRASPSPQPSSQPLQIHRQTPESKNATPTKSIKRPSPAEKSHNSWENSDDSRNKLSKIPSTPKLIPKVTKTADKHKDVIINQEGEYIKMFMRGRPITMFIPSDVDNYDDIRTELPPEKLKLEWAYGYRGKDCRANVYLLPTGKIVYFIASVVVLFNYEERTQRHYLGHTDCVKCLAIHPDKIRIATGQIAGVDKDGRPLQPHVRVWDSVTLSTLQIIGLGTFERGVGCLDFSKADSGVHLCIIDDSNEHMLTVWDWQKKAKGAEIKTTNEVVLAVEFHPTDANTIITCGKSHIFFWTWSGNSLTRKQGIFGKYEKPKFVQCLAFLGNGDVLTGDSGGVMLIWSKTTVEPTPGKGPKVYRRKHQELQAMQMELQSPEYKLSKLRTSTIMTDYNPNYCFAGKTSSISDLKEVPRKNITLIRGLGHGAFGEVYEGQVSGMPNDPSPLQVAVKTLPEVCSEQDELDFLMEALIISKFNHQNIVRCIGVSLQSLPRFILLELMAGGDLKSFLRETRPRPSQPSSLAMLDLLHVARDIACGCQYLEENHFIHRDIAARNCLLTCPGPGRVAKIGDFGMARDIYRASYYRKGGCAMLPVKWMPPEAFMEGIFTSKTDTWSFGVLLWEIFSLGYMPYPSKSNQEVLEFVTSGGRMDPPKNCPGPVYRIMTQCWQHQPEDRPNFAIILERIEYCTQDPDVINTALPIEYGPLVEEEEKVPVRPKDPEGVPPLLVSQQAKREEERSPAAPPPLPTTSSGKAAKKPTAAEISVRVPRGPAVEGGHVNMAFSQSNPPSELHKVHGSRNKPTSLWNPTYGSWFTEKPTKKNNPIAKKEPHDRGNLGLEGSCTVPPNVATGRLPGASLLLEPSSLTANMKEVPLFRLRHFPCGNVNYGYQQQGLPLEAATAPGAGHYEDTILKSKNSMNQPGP
T1 sequence (Q9UM73 1093-1411): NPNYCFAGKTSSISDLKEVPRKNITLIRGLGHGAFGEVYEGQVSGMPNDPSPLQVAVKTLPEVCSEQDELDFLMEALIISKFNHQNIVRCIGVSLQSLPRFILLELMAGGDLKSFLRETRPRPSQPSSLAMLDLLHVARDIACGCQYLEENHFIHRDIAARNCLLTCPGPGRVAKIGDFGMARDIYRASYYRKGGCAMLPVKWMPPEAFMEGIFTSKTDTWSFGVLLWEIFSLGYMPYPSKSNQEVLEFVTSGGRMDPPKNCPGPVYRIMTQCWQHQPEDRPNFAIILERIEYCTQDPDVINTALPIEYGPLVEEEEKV

Turning to `Cc1n[nH]c(C)c1-c1cnc(N)c(O[C@H](C)c2cc(F)ccc2F)c1` [Example 48, 3-[(1R)-(2,5-difluorophenyl)-ethoxy]-5-(3,5-dimethyl-1H-pyrazol-4-yl)pyridin-2-amine], in assay [1], the inhibition constant (Ki) amounted to 1.56 nM. For `CC(Oc1cc(-c2ccnn2C)cnc1N)c1cc(F)ccc1-c1nccn1C` (stereo not drawn) [Example 63, 3-{1-[5-Fluoro-2-(1-methyl-1H-imidazol-2-yl)-phenyl]ethoxy}-5-(2-methyl-2H-pyrazol-3-yl)-pyridin-2-ylamine], the Ki in assay [1] was determined as 67 nM. Moreover, the IC50 in assay [2] is 2350 nM. As for `C[C@@H](Oc1nc(-c2ccc(C(N)=O)nc2)cnc1N)c1cc(F)ccc1-n1nccn1` [Example 64, 5-(5-amino-6-{(1R)-1-[5-fluoro-2-(2H-1,2,3-triazol-2-yl)phenyl]ethoxy}pyrazin-2-yl)pyridine-2-carboxamide], the inhibition constant Ki in assay [1] was determined as 2.4 nM. The molecule further displayed an IC50 in assay [2] of 123 nM. In the same order, the values of `Cc1n[nH]cc1-c1cnc(N)c(OC(C)c2cc(F)ccc2N2CCCC2=O)n1` (stereo not drawn) [Example 65, 1-[2-(1-{[3-amino-6-(3-methyl-1H-pyrazol-4-yl)pyrazin-2-yl]oxy}ethyl)-4-fluorophenyl]pyrroli-din-2-one] are 5.1 nM and 193 nM. Regarding `Cc1n[nH]cc1-c1cnc(N)c(O[C@H](C)c2cc(F)ccc2-n2nccn2)n1` [Example 67, 3-{(1R)-1-[5-fluoro-2-(2H-1,2,3-triazol-2-yl)phenyl]ethoxy}-5-(3-methyl-1H-pyrazol-4-yl)pyrazin-2-amine], the Ki in assay [1] is 0.56 nM. Besides, the IC50 in assay [2] amounted to 40.9 nM. For `COc1ccc(F)cc1[C@@H](C)Oc1nc(-c2ccc([C@H](C)N)cc2)cnc1N` [Example 68, 5-{4-[(1S)-1-aminoethyl]phenyl}-3-[(1R)-1-(5-fluoro-2-methoxyphenyl)eth-oxy]pyrazin-2-amine], in that order: less than 0.2 nM and 4.5 nM. For `COc1ncccc1-c1cnc(N)c(OC(C)c2cc(F)ccc2N2CCCC2=O)n1` (stereo not drawn) [Example 69, 1-[2-(1-{[3-amino-6-(2-methoxypyridin-3-yl)pyrazin-2-yl]oxy}ethyl)-4-fluorophenyl]pyrroli-din-2-one], in that order: 1.1 nM and 52.6 nM. In the case of `C[C@@H](Oc1nc(-c2ccnc(N3CCN(C)CC3)c2)cnc1N)c1cc(F)ccc1-n1nccn1` [Example 70, 3-{(1R)-1-[5-fluoro-2-(2H-1,2,3-triazol-2-yl)phenyl]ethoxy}-5-[2-(4-methylpiperazin-1-yl)pyridin-4-yl]pyrazin-2-amine], the inhibitory constant (Ki) in assay [1] is less than 0.2 nM. Further, half-maximal inhibition in assay [2] (IC50) required 5.48 nM. In the same order, the values of `C[C@@H](Oc1nc(-c2cnn(C3CCNCC3)c2)cnc1N)c1cc(F)ccc1-n1nccn1` [Example 71, 3-{(1R)-1-[5-fluoro-2-(2H-1,2,3-triazol-2-yl)phenyl]ethoxy}-5-[1-(piperidin-4-yl)-1H-pyrazol-4-yl]pyrazin-2-amine] are less than 0.2 nM and 30.3 nM.

As to `C[C@@H](Oc1nc(-c2cccc(S(C)(=O)=O)c2)cnc1N)c1cc(F)ccc1-n1nccn1` [Example 72, 3-{(1R)-1-[5-fluoro-2-(2H-1,2,3-triazol-2-yl)phenyl]ethoxy}-5-[3-(methylsulfonyl)phen-yl]pyrazin-2-amine], in assay [1], the Ki stood at 0.24 nM. For the same molecule, the midpoint of inhibition in assay [2], the IC50, lay at 10.4 nM. In the same order, the values of `C[C@@H](Oc1cc(-c2ccnc(N3CCN(C)CC3)c2)cnc1N)c1cc(F)ccc1-n1nccn1` [Example 73, 5-{(1R)-1-[5-fluoro-2-(2H-1,2,3-triazol-2-yl)phenyl]ethoxy}-2′-(4-methylpiperazin-1-yl)-3,4′-bipyridin-6-amine] are less than 0.2 nM and 6.73 nM. Turning to `C[C@@H](Oc1cc(-c2cnn(C3CCNCC3F)c2)cnc1N)c1cc(F)ccc1-n1nccn1` (stereo partly drawn) [Example 74, 5-[1-(3-fluoropiperidin-4-yl)-1H-pyrazol-4-yl]-3-{(1R)-1-[5-fluoro-2-(2H-1,2,3-triazol-2-yl)phenyl]ethoxy} pyridin-2-amine], the inhibition constant (Ki) in assay [1] was less than 0.2 nM. The same molecule registered a concentration for half-maximal inhibition (IC50) in assay [2] of 6.77 nM. In the same order, the values of `C[C@@H](Oc1cc(-c2cnc3c(c2)C(C)(C)C(=O)N3)cnc1N)c1cc(F)ccc1-n1nccn1` [Example 75, 5-(6-amino-5-{(1R)-1-[5-fluoro-2-(2H-1,2,3-triazol-2-yl)phenyl]ethoxy}pyridin-3-yl)-3,3-dimethyl-1,3-dihydro-2H-pyrrolo[2,3-b]pyridin-2-one] are 0.341 nM and 24.6 nM. In the same order, the values of `CC(C)n1cc(-c2cnc(N)c(O[C@H](C)c3cc(F)ccc3-n3nccn3)c2)cn1` [Example 76, 3-{(1R)-1-[5-fluoro-2-(2H-1,2,3-triazol-2-yl)phenyl]ethoxy}-5-[1-(propan-2-yl)-1H-pyrazol-4-yl]pyridin-2-amine] are 0.216 nM and 25.5 nM. In the case of `CC(O)Cn1cc(-c2cnc(N)c(O[C@H](C)c3cc(F)ccc3-n3nccn3)c2)cn1` (stereo partly drawn) [Example 77, 1-[4-(6-amino-5-{(1R)-1-[5-fluoro-2-(2H-1,2,3-triazol-2-yl)phenyl]ethoxy}pyridin-3-yl)-1H-pyrazol-1-yl]propan-2-ol], the Ki in assay [1] was 0.2 nM. In addition, the IC50 in assay [2] came out at 15.3 nM.

On to `CC1CNc2ncc(-c3cnc(N)c(O[C@H](C)c4cc(F)ccc4-n4nccn4)c3)cc2O1` (stereo partly drawn) [Example 79, 3-{(1R)-1-[5-fluoro-2-(2H-1,2,3-triazol-2-yl)phenyl]ethoxy}-5-(2-methyl-3,4-dihydro-2H-pyrido[3,2-b][1,4]oxazin-7-yl)pyridin-2-amine], for which the Ki in assay [1] is less than 0.2 nM. The half-maximal inhibitory concentration (IC50) in assay [2] came to 15.5 nM. In the same order, the values of `C[C@@H](Oc1cc(-c2cnn(C3CCNCC3)c2)cnc1N)c1cc(F)ccc1-n1nccn1` [Example 80, 3-{(1R)-1-[5-fluoro-2-(2H-1,2,3-triazol-2-yl)phenyl]ethoxy}-5-[1-(piperidin-4-yl)-1H-pyrazol-4-yl]pyridin-2-amine] are less than 0.2 nM and 6.58 nM. In the same order, the values of `C[C@@H](Oc1cc(-c2cnn(C3CCNC3)c2)cnc1N)c1cc(F)ccc1-n1nccn1` (stereo partly drawn) [Example 81, 3-{(1R)-1-[5-fluoro-2-(2H-1,2,3-triazol-2-yl)phenyl]ethoxy}-5-[1-(pyrrolidin-3-yl)-1H-pyrazol-4-yl]pyridin-2-amine] are less than 0.2 nM and 9.9 nM. For `CCn1cc(-c2cnc(N)c(O[C@H](C)c3cc(F)ccc3-n3nccn3)c2)ccc1=O` [Example 82, 6′-amino-1-ethyl-5′-{(1R)-1-[5-fluoro-2-(2H-1,2,3-triazol-2-yl)phenyl]ethoxy}-3,3′-bipyridin-6(1H)-one], in that order: less than 0.2 nM and 75.3 nM. In the case of `Cc1nn(CC#N)c(C)c1-c1cnc(N)c(O[C@H](C)c2cc(F)ccc2-n2nccn2)c1` [Example 84, [4-(6-amino-5-{(1R)-1-[5-fluoro-2-(2H-1,2,3-triazol-2-yl)phenyl]ethoxy}pyridin-3-yl)-3,5-dimethyl-1H-pyrazol-1-yl]acetonitrile], in assay [1], the Ki is less than 0.2 nM. Moreover, in assay [2], it took 13.2 nM to reach half-maximal inhibition (IC50).

On to `C[C@@H](Oc1cc(-c2cccc3c2CNC3=O)cnc1N)c1cc(F)ccc1-n1nccn1` [Example 85, 4-(6-Amino-5-((R)-1-(5-fluoro-2-(2H-1,2,3-triazol-2-yl)phenyl)ethoxy)pyridin-3-yl)isoindolin-1-one], for which the Ki in assay [1] is 0.37 nM. Moreover, inhibition in assay [2] was half-maximal at 6.81 nM (IC50). `C[C@@H](Oc1cc(-c2cccc(CS(C)(=O)=O)c2)cnc1N)c1cc(F)ccc1-n1nccn1` [Example 87, 3-{(1R)-1-[5-fluoro-2-(2H-1,2,3-triazol-2-yl)phenyl]ethoxy}-5-{3-[(methylsulfonyl)methyl]phenyl}pyridin-2-amine]: the Ki in assay [1] was less than 0.2 nM. This molecule gave an IC50 in assay [2] of 4.14 nM. `C[C@@H](N)c1ccc(-c2cnc(N)c(O[C@H](C)c3cc(F)ccc3-n3nccn3)c2)cc1` [Example 88, 5-{4-[(1R)-1-aminoethyl]phenyl}-3-{(1R)-1-[5-fluoro-2-(2H-1,2,3-triazol-2-yl)phenyl]ethoxy}-pyridin-2-amine]: the Ki in assay [1] is less than 0.2 nM. In addition, the half-maximal inhibitory concentration (IC50) in assay [2] came out at 2.61 nM.

Take `C[C@@H](Oc1cc(-c2ccc3c(c2)CNC3=O)cnc1N)c1cc(F)ccc1-n1nccn1` [Example 89, 5-(6-amino-5-{(1R)-1-[5-fluoro-2-(2H-1,2,3-triazol-2-yl)phenyl]ethoxy}pyridin-3-yl)-2,3-dihydro-1H-isoindol-1-one]: in assay [1], the inhibitory constant (Ki) stood at 0.22 nM. Also, half-maximal inhibition in assay [2] (IC50) was put at 43.6 nM. Take `CNC(=O)c1nc(C)c(-c2cnc(N)c(O[C@H](C)c3cc(F)ccc3-n3nccn3)c2)s1` [Example 90, 5-(6-amino-5-{(1R)-1-[5-fluoro-2-(2H-1,2,3-triazol-2-yl)phenyl]ethoxy}pyridin-3-yl)-N,4-dimethyl-1,3-thiazole-2-carboxamide]: the inhibition constant (Ki) in assay [1] came out at 1.2 nM. Further, the IC50 in assay [2] was determined as 58.9 nM.

For the molecule `Cc1nn(CC(O)CO)c(C)c1-c1cnc(N)c(O[C@H](C)c2cc(F)ccc2-n2nccn2)c1` (stereo partly drawn) [Example 91, 3-[4-(6-amino-5-{(1R)-1-[5-fluoro-2-(2H-1,2,3-triazol-2-yl)phenyl]ethoxy}pyridin-3-yl)-3,5-dimethyl-1H-pyrazol-1-yl]propane-1,2-diol], in assay [1], the Ki is less than 0.2 nM. The IC50 in assay [2] turned out to be 0.793 nM. For `CNC(=O)c1ncc(-c2cnc(N)c(O[C@H](C)c3cc(F)ccc3-n3nccn3)c2)cn1` [Example 92, 5-(6-amino-5-{(1R)-1-[5-fluoro-2-(2H-1,2,3-triazol-2-yl)phenyl]ethoxy}pyridin-3-yl)-N-methylpyrimidine-2-carboxamide], in that order: 7.2 nM and 729 nM. For `COCc1ccc(-c2cnc(N)c(OC(C)c3cc(F)ccc3OC)c2)cc1S(C)(=O)=O` (stereo not drawn) [Example 135, 3-[1-(5-fluoro-2-methoxyphenyl)ethoxy]-5-[4-(methoxymethyl)-3-(methylsulfonyl)phenyl]pyridin-2-amine], inhibition in assay [2] was half-maximal at 4.15 nM (IC50).
